Patent US8299296B2, “Spiro compounds and pharmaceutical use thereof” (Japan Tobacco Inc., priority 2007, dated 2012)
Where a name gives a salt, the structure may show the parent alone.

Target: T1, human GPR40 (Homo sapiens, UniProt O14842)
T1 construct: expressed in transfected cells
Experiment: Ca2+ mobilization (FLIPR) in a stable GPR40-expressing cell; GPR40 agonist activity
Format: cell-based
Settings: compound concentration corresponding to 50% PosiC, 100% = intracellular calcium level induced by 80 μM palmitic acid
Description: Evaluation of effect of test compounds on Ca^2+ mobilization by using a stable GPR40-expressing cell A stable human GPR40-expressing HEK293 cell was used. A cell suspension was prepared such that the above-mentioned cells were present at 6×10^5 cells/mL in a cell culture medium (D-MEM (Nikken Bio Medical Laboratory) supplemented with 10% (v/v) fetal bovine serum (Biowest) and 1% (v/v) penicillin-streptomycin solution (Invitrogen)). The cell suspension was plated in a 384-well plate (poly-D-lysine coated plate; Falcon) in a volume of 25 μl/well, and the plate was incubated at 37° C. in an atmosphere of 5% CO2 overnight. Each test compound was added to the cell at each concentration as below, and then the change in intracellular calcium level was measured by FLIPR^TETRA (Molecular Devices). Before the FLIPR assay, the following preparative solutions were prepared. First, an assay buffer was prepared for use in the preparation of a fluorescent dye solution and a diluent buffer solution. The assay buffer was prepared by adding 1M HEPES solution (Invitrogen) to Hanks' Balanced Salt Solution (Invitrogen), followed by adjusting the pH to 7.4 with 1M NaOH (Nacalai Tesque). Next, the fluorescent dye solution and the diluent buffer solution were prepared. The fluorescent dye solution was prepared in accordance with the instruction manual attached to Fluo-4NW calcium assay kit (Invitrogen), followed by addition of bovine serum albumin (Sigma) to a final concentration of 0.1% (w/v). The diluent buffer solution was prepared by adding bovine serum albumin (Sigma) to the assay buffer to give a final concentration of 0.1% (w/v). After removing a medium supernatant from the cell culture plate incubated overnight, the fluorescent dye solution was added to the plate in a volume of 25 μl/well. The plate was incubated at 37° C. in an atmosphere of 5% CO2 for 90 minutes to promote the fluorescent dye uptake in the cell. Meanwhile, the test compounds (i.e., the compounds prepared in Examples) dissolved in dimethyl sulfoxide (DMSO; Nacalai Tesque) were diluted with the diluent buffer solution, to prepare each compound solution at each concentration. In addition, a palmitic acid solution was prepared as a positive control solution (hereinafter abbreviated as PosiC). A 40 μl aliquot of each sample solution prepared as above was added to each well of a 384-well polypropylene plate to prepare a compound plate. Finally, after the sufficient uptake of the fluorescent dye in the cell, the cell plate and the compound plate were set to FLIPR^TETRA. After the above pretreatment, the change in intracellular calcium level was measured by FLIPR^TETRA upon addition of 25 μl of each test compound solution at each concentration. The GPR40 agonist activity of each test compound at each concentration was determined as a relative activity level (% PosiC) with the intracellular calcium level induced by 80 μM palmitic acid (a GPR40 agonist) set to 100%. Next, each compound concentration corresponding to 50% PosiC was calculated based on the % PosiC value, to compare between agonist activities of the test compounds. In the tables, “++++” indicates 0.01 μM or more but less than 0.1 μM, “+++” indicates 0.1 μM or more but less than 1 μM, “++” indicates 1 μM or more but less than 10 μM, and “+” indicates 10 μM or more for 50% posiC value. In the tables, “N.T.” indicates “not tested”.

T1 sequence (O14842 whole entry): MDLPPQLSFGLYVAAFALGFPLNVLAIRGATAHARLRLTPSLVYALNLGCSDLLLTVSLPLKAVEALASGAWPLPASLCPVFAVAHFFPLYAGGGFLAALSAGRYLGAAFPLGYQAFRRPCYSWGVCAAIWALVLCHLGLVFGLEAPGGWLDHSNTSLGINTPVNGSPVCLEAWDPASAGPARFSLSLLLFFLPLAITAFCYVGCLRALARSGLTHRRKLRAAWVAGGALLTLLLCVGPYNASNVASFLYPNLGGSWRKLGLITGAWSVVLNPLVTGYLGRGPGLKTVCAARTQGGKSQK

Row | EC50 [nM] | SMILES
1 | 10 to 100 | CCOC(CC(=O)O)c1ccc(OCC2=CC3(CCCCC3)CCC2)cc1 (single isomer, unassigned; (-)) [Example 42, (−)-3-ethoxy-3-[4-(spiro[5.5]undec-1-en-2-ylmethoxy)-phenyl]-propionic acid]
2 | 1000 to 10000 | O=C(O)CCc1ccc(OCC2CCCC3(CCCCCC3)C2)cc1 (racemic) [Example 49, 3-[4-(spiro[5.6]dodec-2-ylmethoxy)-phenyl]-propionic acid]
3 | 100 to 1000 | CCCOC(CC(=O)O)c1ccc(OCC2CCCC3(CCCCC3)C2)cc1 (racemic) [Example 83, 3-propoxy-3-[4-(spiro[5.5]undec-2-ylmethoxy)-phenyl]-propionic acid]
4 | ≥ 10000 | O=C(O)CCc1ccc(OCC2CCC3(CCCCCC3)C2)cc1 (racemic) [Example 21, 3-[4-(spiro[4.6]undec-2-ylmethoxy)-phenyl]-propionic acid]
5 | 10 to 100 | CC#C[C@@H](CC(=O)O)c1ccc(OCC2CCCC3(CCCCC3)C2)cc1 (mixture of isomers) [Example 28, (3S)-3-[4-(spiro[5.5]undec-2-ylmethoxy)-phenyl]-hex-4-ynoic acid]
6 | 100 to 1000 | CC#C[C@@H](CC(=O)O)c1ccc(OCC2CCCC3(CCCCC3)C2)cc1 (stereo partly drawn) [Example 29, (3S)-3-[4-(spiro[5.5]undec-2-ylmethoxy)-phenyl]-hex-4-ynoic acid sodium salt]
7 | 1000 to 10000 | CCC(CC(=O)O)c1ccc(OCC2CCCC3(CCCCC3)C2)cc1 (racemic) [Example 87, 3-[4-(spiro[5.5]undec-2-ylmethoxy)-phenyl]-pentanoic acid]
8 | 1000 to 10000 | CCOC(CC(=O)O)c1ccc(OCC2=CC3(CCCCC3)CCC2)cc1 (single isomer, unassigned; (+)) [Example 44, (+)-3-ethoxy-3-[4-(spiro[5.5]undec-1-en-2-ylmethoxy)-phenyl]-propionic acid]
9 | 10 to 100 | Cn1nnnc1C(CC(=O)O)c1ccc(OCC2CCCC3(CCCCC3)C2)cc1 (racemic) [Example 40, 3-(1-methyl-1H-tetrazol-5-yl)-3-[4-(spiro[5.5]undec-2-ylmethoxy)-phenyl]-propionic acid]
10 | 100 to 1000 | CCOC(CC(=O)O)c1ccc(OCC2CCCC3(CCCCC3)C2)cc1 (racemic) [Example 75, 3-ethoxy-3-[4-(spiro[5.5]undec-2-ylmethoxy)-phenyl]-propionic acid]
11 | 1000 to 10000 | CNC(=O)C(CC(=O)O)c1ccc(OCC2CCCC3(CCCCC3)C2)cc1 (racemic) [Example 65, N-methyl-3-[4-(spiro[5.5]undec-2-ylmethoxy)-phenyl]-succinamic acid]
12 | 1000 to 10000 | COCC(CC(=O)O)c1ccc(OCC2CCCC3(CCCCC3)C2)cc1 (racemic) [Example 71, 4-methoxy-3-[4-(spiro[5.5]undec-2-ylmethoxy)-phenyl]-butyric acid]
13 | 1000 to 10000 | CC#C[C@H](CC(=O)O)c1ccc(OCC2CCCC3(CCCCC3)C2)cc1 (mixture of isomers) [Example 58, (3R)-3-[4-(spiro[5.5]undec-2-ylmethoxy)-phenyl]-hex-4-ynoic acid]

Second part, the molecule before the results:

Row | SMILES | EC50 [nM]
14 | CC#C[C@@H](CC(=O)O)c1ccc(OCC2=CCC3(CCCC3)CC2)cc1 [Example 25, (S)-3-[4-(spiro[4.5]dec-7-en-8-ylmethoxy)-phenyl]-hex-4-ynoic acid] | 100 to 1000
15 | CC#C[C@@H](CC(=O)O)c1ccc(OCC2CCCCC3(CC3)C2)cc1 (mixture of isomers) [Example 116, (3S)-3-[4-(spiro[2.6]non-5-ylmethoxy)-phenyl]-hex-4-ynoic acid] | 1000 to 10000
16 | CC#C[C@@H](CC(=O)O)c1ccc(OCC2CCCCC23CCCCC3)cc1 (mixture of isomers) [Example 72, (3S)-3-[4-(spiro[5.5]undec-1-ylmethoxy)-phenyl]-hex-4-ynoic acid] | 1000 to 10000
17 | CC1(C)CC(COc2ccc(CCC(=O)O)cc2)CC2(CCCC2)C1 (racemic) [Example 115, 3-[4-(9,9-dimethyl-spiro[4.5]dec-7-ylmethoxy)-phenyl]-propionic acid] | 1000 to 10000
18 | CC#C[C@@H](CC(=O)O)c1ccc(OCC2=CC3(CCCCC3)CC2)cc1 [Example 16, (S)-3-[4-(spiro[4.5]dec-1-en-2-ylmethoxy)-phenyl]-hex-4-ynoic acid sodium salt] | 100 to 1000
19 | CC#C[C@@H](CC(=O)O)c1ccc(OCC2CCCC3(CCCCC3)C2O)cc1 (mixture of isomers) [Example 70, (3S)-3-[4-(1-hydroxy-spiro[5.5]undec-2-ylmethoxy)-phenyl]-hex-4-ynoic acid] | 100 to 1000
20 | CC1=CCCC(C)C12CCCC(COc1ccc(CCC(=O)O)cc1)C2 (racemic) [Example 50, 3-[4-(7,11-dimethyl-spiro[5.5]undec-7-en-2-ylmethoxy)-phenyl]-propionic acid] | 100 to 1000
21 | CC#C[C@@H](CC(=O)O)c1ccc(OCC2=CCCC3(CCCCC3)C2)cc1 [Example 1, (S)-3-[4-(spiro[5.5]undec-2-en-2-ylmethoxy)-phenyl]-hex-4-ynoic acid] | 10 to 100
22 | CC#C[C@@H](CC(=O)O)c1ccc(OC2CCCC3(CCCCC3)C2)cc1 (mixture of isomers) [Example 64, (3S)-3-[4-(spiro[5.5]undec-2-yloxy)-phenyl]-hex-4-ynoic acid] | 100 to 1000
23 | CC1(C)CCC=CC12CCCC(COc1ccc(CCC(=O)O)cc1)C2 (racemic) [Example 55, 3-[4-(11,11-dimethyl-spiro[5.5]undec-7-en-2-ylmethoxy)-phenyl]-propionic acid] | 100 to 1000
24 | O=C(O)CCc1ccc(OC2CCCC3(CCCCC3)C2)cc1 (racemic) [Example 61, 3-[4-(spiro[5.5]undec-2-yloxy)-phenyl]-propionic acid] | ≥ 10000
25 | CC#C[C@@H](CC(=O)O)c1ccc(OC2CCC3(CCCCC3)CC2)cc1 [Example 63, (3S)-3-[4-(spiro[5.5]undec-3-yloxy)-phenyl]-hex-4-ynoic acid] | 100 to 1000
26 | CC#C[C@@H](CC(=O)O)c1ccc(OCC2=CCC3(CCCCC3)C2)cc1 [Example 14, (S)-3-[4-(spiro[4.5]dec-2-en-2-ylmethoxy)-phenyl]-hex-4-ynoic acid sodium salt] | 100 to 1000
27 | CC#C[C@@H](CC(=O)O)c1ccc(OCC2=C[C@@]3(CCC2)CCC(=O)C3)cc1 [Example 97, (3S)-3-[4-((5S)-2-oxo-spiro[4.5]dec-6-en-7-ylmethoxy)-phenyl]-hex-4-ynoic acid sodium salt] | 100 to 1000
28 | CC#C[C@@H](CC(=O)O)c1ccc(OCC2=CCCC3(CCCCC3)C2)cc1 [Example 2, (S)-3-[4-(spiro[5.5]undec-2-en-2-ylmethoxy)-phenyl]-hex-4-ynoic acid sodium salt] | 10 to 100
29 | O=C(O)CCc1ccc(OCC2CCC3(CCCCC3)CC2)cc1 [Example 57, 3-[4-(spiro[5.5]undec-3-ylmethoxy)-phenyl]-propionic acid] | 1000 to 10000
30 | O=C(O)CCc1ccc(OCC2=CC3(CCC3)CC2)cc1 [Example 117, 3-[4-(spiro[3.4]oct-5-en-6-ylmethoxy)-phenyl]-propionic acid] | 1000 to 10000
31 | O=C(O)CCc1ccc(OCCC2CCCC3(CCCCC3)C2)cc1 (racemic) [Example 62, 3-[4-(2-spiro[5.5]undec-2-yl-ethoxy)-phenyl]-propionic acid] | ≥ 10000
32 | CC#C[C@@H](CC(=O)O)c1ccc(OCC2CCCC3(C=CCCC3(C)C)C2)cc1 (mixture of isomers) [Example 19, (3S)-3-[4-(11,11-dimethyl-spiro[5.5]undec-7-en-2-ylmethoxy)-phenyl]-hex-4-ynoic acid] | 10 to 100
33 | CC#C[C@@H](CC(=O)O)c1ccc(OCC2CCC3(CCCCC3)CC2)cc1 [Example 24, (S)-3-[4-(spiro[5.5]undec-3-ylmethoxy)-phenyl]-hex-4-ynoic acid] | 100 to 1000
34 | O=C(O)CCc1ccc(OCC2CCCC3(CCCC3)C2)nc1 (racemic) [Example 113, 3-[6-(spiro[4.5]dec-7-ylmethoxy)-pyridin-3-yl]-propionic acid hydrochloride] | 1000 to 10000
35 | CC#C[C@@H](CC(=O)O)c1ccc(OCC2=CCCC3(CCCCCC3)C2)cc1 [Example 4, (S)-3-[4-(spiro[5.6]dodec-2-en-2-ylmethoxy)-phenyl]-hex-4-ynoic acid sodium salt] | 10 to 100
